Several values for one entry are separate records, joined by “and”; a condition that tells them apart may be missing. Equal entries are not always repeated.
System: PHKs
Test: Cytokine release into PHK supernatant (LEGENDplex / ELISA)
Type: cell-based, human
Settings: 5 h, lugdunin 2 µM or Pam2Cys 100 ng/mL, two technical replicates
Description: Fig. 1 Lugdunin sensitizes epithelial cells for innate immune defense. a Primary human keratinocytes (PHKs) were pretreated with S. epidermidis conditioned medium (CM), indicated lugdunin concentrations, or the combination of both for 20 h. Subsequently, cells were infected with S. aureus for 1.5 h followed by cell lysis and determination of colony-forming units (CFUs). Shown is one representative experiment of three independent experiments with six technical replicates ± s.e.m. n.s., not significant. b Dorsal skin of mice was pretreated with S. epidermidis CM, 1.5 µg lugdunin alone or in combination with S. epidermidis CM for 24 h. Subsequently, S. aureus CFUs were determined. Horizontal lines represent the mean of each group ± s.e.m. c PHKs were treated with 2 μM lugdunin or with S. epidermidis CM alone or in combination for 20 h and subsequently expression of indicated antimicrobial peptides (AMPs) (respective protein names in brackets) was analyzed and normalized to actin. Shown is one representative experiment of three independent experiments with two technical replicates ± s.e.m. d PHKs were treated with 2 µM lugdunin or 100 ng/mL Pam2Cys for 5 h and subsequently the concentration of indicated cytokines in the supernatant was analyzed by LEGENDplex^TM (BioLegend). Shown is one representative experiment of three independent experiments with two technical replicates ± s.e.m. e PHKs were treated with increasing concentrations of lugdunin or 100 ng/mL Pam2Cys or Pam3Cys for 5 h and subsequently expression of chemokine (C-X-C motif) ligand 8 (CXCL8) was analyzed and normalized to actin. Shown is one representative experiment of three independent experiments, each with two technical replicates ± s.e.m. f, g Indicated cells were treated with 2 µM lugdunin or 100 ng/mL Pam2Cys as a positive control for 5 h and subsequently the concentration of CXCL8 (f) and interleukin-1α (IL-1α) (g) in the supernatant was analyzed by LEGENDplex^TM (BioLegend) and enzyme-linked immunosorbent assay (ELISA) (R&D Systems). Shown is one representative experiment of three independent experiments with two technical replicates ± s.e.m. Significant differences to control treatments were analyzed by ordinary one-way analysis of variance (ANOVA) followed by Dunnett’s multiple comparisons test (*P < 0.05; **P < 0.01; ***P < 0.001; ****P < 0.0001). n.d. = not detected. Source data are provided as a Source Data file
For cytokine analysis from cell cultures, 10 µL of supernatant was used for cytokine analysis via the LEGENDplex^TM human inflammation panel (BioLegend). For cytokine analysis from mouse skin, 4 mm skin punches were cultured in an airlift system where only the dermis had access to medium for 10 h. Skin punches were cultured in RPMI containing 1% FCS (Biochrom/Merck Millipore), 1% penicillin and streptomycin (Gibco/Life Technologies) and 0.25 µg/mL amphotericin B (CELLnTEC). Ten microliters of a 3-fold dilution of culture supernatant was used for cytokine analysis via the LEGENDplex^TM mouse inflammation panel (BioLegend). Samples were acquired in duplicates using a BD LSRII flow cytometer (BD Biosciences) and LEGENDplex^TM Software (BioLegend).
For IL-1α analysis, 100 µL of cell culture supernatant was analyzed via ELISA (R&D Systems) according to manufacturer’s instruction. For MIP-2 analysis, 100 µL of a 5-fold dilution from skin cultures supernatant was used and analyzed via ELISA (R&D Systems) according to the manufacturer’s instruction. For LL-37 ELISA, ELISA plates (Nunc) were coated overnight at 4 °C with 100 µL of cell culture supernatant or 2-fold dilutions of LL-37 starting from 8 µg/mL. The next day, the plate was washed three times using PBS + 0.5% BSA + 0.05% Triton X-100, followed by incubation with 100 µL primary antibody against hCAP18/LL-37 (HycultBiotech, Cat#HM2071, 1:120 in PBS + 0.5% BSA + 0.05% Triton X-100) at 37 °C for 1 h. […]

## Lugdunin
LEGENDplex, Fig 1d
  CXCL8 concentration in supernatant: 62.009 and 63.022
Fig 1f
  CXCL8 concentration in supernatant: 186.026 and 189.663
Fig 1d
  IFN concentration in supernatant (first line IFN, r44): 0.000
  IFN concentration in supernatant (second line IFN, r45): 0.000
  IL-1 concentration in supernatant (first line IL-1, r43): 0.000
  IL-1 concentration in supernatant (second line IL-1, r47): 0.000
  IL-6 concentration in supernatant: 0.000
  IL-10 concentration in supernatant: 0.000
  IL-12p70 concentration in supernatant: 0.000
  IL-18 concentration in supernatant: 0.000
  IL-23 concentration in supernatant: 0.000
  IL-33 concentration in supernatant: 0.000
  MCP-1 concentration in supernatant: 219.647 and 222.665
  TNF concentration in supernatant: 0.000

From PMC6588697, “Lugdunin amplifies innate immune responses in the skin in synergy with host- and microbiota-derived factors” (Nature Communications, 2019)
